One test concerns Escherichia coli. The test is described as follows: Induction of Escherichia coli pUC19 DNA cleavage assessed as non-cleaved DNA level at 0.714 mM after 12 hrs.
Another test relates to DNA. The test is described as follows: Binding affinity to calf thymus DNA assessed by fluorescence quenching assay. Type of test: nucleic-acid assay. As to conditions: Bos taurus.

`OC[C@H]1O[C@@H]2O[C@H]3[C@H](O)[C@@H](O)[C@@H](O[C@H]4[C@H](O)[C@@H](O)[C@@H](O[C@H]5[C@H](O)[C@@H](O)[C@@H](O[C@H]6[C@H](O)[C@@H](O)[C@@H](O[C@H]7[C@H](O)[C@@H](O)[C@@H](O[C@H]8[C@H](O)[C@@H](O)[C@@H](O[C@H]1[C@H](O)[C@H]2O)O[C@@H]8CO)O[C@@H]7CO)O[C@@H]6CO)O[C@@H]5CO)O[C@@H]4CO)O[C@@H]3CO`: in the test on Escherichia coli, the Activity came out at 6.3%. With `NC(CCC(=O)Nc1cccc2ccccc12)C(=O)N1CCNCCNCCNCC1` (stereo not drawn), the K with DNA was 30000 L/mol. Also, in the test on Escherichia coli, the Activity came to 7.4%.

For the origin of these results see ChEMBL document CHEMBL1143125, “DNA cleavage by novel copper (II) complex and the role of beta-cyclodextrin in promoting cleavage” (Bioorg Med Chem, 2008).
